Assay results: article PMC11173529, “Structure–Activity Relationship Studies in a Series of Xanthine Inhibitors of SLACK Potassium Channels” (Molecules, 2024)

Key:
WT hSLACK = WT hSLACK (Homo sapiens, UniProt Q5JUK3); assay: Whole-cell automated patch-clamp (APC) in CHO cells stably expressing WT hSLACK; assay type: cell-based; details: range across the three variants, APC; read-out: IC50 values across WT, A934T, and G288S SLACK
Summary of the method: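 CHO-K1 cells stably expressing human SLACK were whole-cell recorded at room temperature with Na/NMDG external solution pH 7.4 and KF-based internal pH 7.2. Concentrations 0.125–30 μM in half-log steps, ≥3 cells each; ramp and step protocol from −80 mV holding, current at 0 mV normalized to post-buffer current, IC50 from median of last 7 amplitudes.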

mouse WT SLACK = molecular target: T1, mouse WT SLACK (Mus musculus, UniProt Q6ZPR4); assay: Whole-cell APC in CHO cells stably expressing mouse WT SLACK; assay type: cell-based; details: for IC50: APC, CHO cells; for Imax: maximum inhibition at 30 µM standardized to VU0606170 (100%)
T1 construct: expressed in transfected cells; host or cells: CHO
T1 sequence (Q6ZPR4 1-1224): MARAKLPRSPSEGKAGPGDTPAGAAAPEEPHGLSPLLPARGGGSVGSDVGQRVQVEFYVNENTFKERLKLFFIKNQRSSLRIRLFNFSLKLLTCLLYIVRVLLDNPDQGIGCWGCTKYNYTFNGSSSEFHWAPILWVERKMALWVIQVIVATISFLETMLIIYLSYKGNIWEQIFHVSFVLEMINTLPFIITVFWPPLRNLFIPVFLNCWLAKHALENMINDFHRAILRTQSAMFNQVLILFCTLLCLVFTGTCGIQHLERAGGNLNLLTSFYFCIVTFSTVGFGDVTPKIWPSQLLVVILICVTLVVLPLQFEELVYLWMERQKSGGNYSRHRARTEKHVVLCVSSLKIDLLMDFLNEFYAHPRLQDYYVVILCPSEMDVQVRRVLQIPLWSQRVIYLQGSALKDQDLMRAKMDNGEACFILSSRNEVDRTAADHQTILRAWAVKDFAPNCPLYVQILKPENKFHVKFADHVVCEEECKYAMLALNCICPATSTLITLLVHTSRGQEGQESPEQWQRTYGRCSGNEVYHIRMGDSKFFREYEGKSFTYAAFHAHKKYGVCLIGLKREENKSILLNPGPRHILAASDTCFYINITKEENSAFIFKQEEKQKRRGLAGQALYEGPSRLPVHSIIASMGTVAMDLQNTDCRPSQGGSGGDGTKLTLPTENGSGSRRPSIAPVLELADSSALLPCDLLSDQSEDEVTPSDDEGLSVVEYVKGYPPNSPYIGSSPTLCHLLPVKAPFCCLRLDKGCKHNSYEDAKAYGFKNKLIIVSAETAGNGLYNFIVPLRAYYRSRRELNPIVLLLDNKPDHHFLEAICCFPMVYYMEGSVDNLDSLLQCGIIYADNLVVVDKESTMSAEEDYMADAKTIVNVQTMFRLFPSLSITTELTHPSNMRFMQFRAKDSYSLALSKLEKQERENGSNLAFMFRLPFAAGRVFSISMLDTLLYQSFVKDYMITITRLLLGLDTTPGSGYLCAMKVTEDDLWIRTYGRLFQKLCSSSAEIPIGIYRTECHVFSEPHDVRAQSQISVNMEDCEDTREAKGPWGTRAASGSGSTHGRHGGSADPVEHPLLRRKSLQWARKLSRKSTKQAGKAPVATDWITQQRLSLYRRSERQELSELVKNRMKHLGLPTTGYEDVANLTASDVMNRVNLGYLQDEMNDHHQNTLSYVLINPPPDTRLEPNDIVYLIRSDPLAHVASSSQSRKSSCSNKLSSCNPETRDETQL
Excerpt: Development of a useful SLACK inhibitor in vivo tool will require potent activity at the corresponding mouse ortholog as studies in appropriate mouse models will be critical. Thus, we evaluated analogs 32 and 48 in our APC assay using CHO cells stably expressing mouse WT SLACK (Table 6). […] We were also eager to evaluate the same compounds with regard to their ability to inhibit clinically relevant GOF SLACK mutants. Both the C-terminus A934T mutant and transmembrane G288S mutant have been associated with clinical cases of EIMFS [3, 7].
Automated patch-clamp recording was performed with a SyncroPatch 768 PE system (Nanion, Munich, Germany) as previously described. Whole-cell recordings were performed at room temperature. Cells were harvested by first washing with PBS without Mg^2+ or Ca^2+ (Gibco, Billings, MT, USA) to remove cell culture media, followed by dissociation with TryPLE (Gibco, Billings, MT, USA). Cells were then resuspended and diluted to 100,000 cells/mL in external solution. External solution contained 105 mM NaCl, 4 mM KCl, 1 mM MgCl2, 5 mM CaCl2, 10 mM HEPES, and 40 mM N-Methyl-D-glucamine chloride, titrated to pH of 7.4 and osmolarity of 300 mOsm/kg; internal solution contained 70 mM NaCl, 70 mM KF, 10 mM KCl, 5 mM EGTA, and 5 mM HEPES, titrated to a pH of 7.2 and osmolarity of 295 mOsm/kg.
The APC protocol was set as follows: Cells were held at a […] of −80 mV for 100 ms, then a ramp protocol was performed from −100 mV to 80 mV at 0.4 mV/ms, followed by holding the cell at −80 mV for another 100 ms, then steps were performed at −20 mV, 0 mV, +20 mV, +40 mV, and +60 mV for 100 ms of each step. Whole-cell currents were measured at 0 mV and normalized to current after external buffer addition. […] To obtain the concentration-response relationship graphs and IC50 values, we take the median value of the last 7 current amplitude values obtained for each set of data points collected for a given concentration at a particular step.

Sequence of WT hSLACK (Q5JUK3 whole entry): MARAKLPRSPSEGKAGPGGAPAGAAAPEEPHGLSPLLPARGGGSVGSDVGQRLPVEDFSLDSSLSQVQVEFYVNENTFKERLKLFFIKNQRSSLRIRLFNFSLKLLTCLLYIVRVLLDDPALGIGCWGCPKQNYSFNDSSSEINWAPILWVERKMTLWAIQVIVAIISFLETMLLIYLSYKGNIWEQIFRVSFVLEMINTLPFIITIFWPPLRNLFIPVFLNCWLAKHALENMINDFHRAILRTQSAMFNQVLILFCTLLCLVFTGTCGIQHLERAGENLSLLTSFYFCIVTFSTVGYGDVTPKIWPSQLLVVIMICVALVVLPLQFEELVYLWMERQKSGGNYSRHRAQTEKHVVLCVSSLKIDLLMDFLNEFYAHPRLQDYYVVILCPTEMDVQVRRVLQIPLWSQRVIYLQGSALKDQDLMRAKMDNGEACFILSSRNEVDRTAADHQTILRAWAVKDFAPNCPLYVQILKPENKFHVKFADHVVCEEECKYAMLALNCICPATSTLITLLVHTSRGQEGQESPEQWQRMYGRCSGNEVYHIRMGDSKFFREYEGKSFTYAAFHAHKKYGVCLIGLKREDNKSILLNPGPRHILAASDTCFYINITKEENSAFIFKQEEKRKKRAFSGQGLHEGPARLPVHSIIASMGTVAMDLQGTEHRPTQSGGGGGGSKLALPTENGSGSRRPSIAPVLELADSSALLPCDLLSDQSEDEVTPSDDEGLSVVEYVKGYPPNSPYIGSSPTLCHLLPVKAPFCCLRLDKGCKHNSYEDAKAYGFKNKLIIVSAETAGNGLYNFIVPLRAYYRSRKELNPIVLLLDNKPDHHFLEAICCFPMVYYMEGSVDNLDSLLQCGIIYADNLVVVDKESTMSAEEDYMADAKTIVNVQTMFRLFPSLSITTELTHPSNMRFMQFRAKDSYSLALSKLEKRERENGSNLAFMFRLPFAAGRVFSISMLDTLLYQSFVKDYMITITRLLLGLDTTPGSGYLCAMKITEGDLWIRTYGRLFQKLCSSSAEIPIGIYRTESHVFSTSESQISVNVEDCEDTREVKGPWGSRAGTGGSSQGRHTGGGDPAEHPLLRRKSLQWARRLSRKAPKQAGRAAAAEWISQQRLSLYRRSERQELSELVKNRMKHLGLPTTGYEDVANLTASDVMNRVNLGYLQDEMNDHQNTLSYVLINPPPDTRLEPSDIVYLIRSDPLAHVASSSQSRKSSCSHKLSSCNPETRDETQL

IC50 (WT hSLACK)	Compound	IC50 (mouse WT SLACK)	Imax (mouse WT SLACK)
590 to 710 nM	CCCCN(Cc1ccc(F)cc1)c1nc2c(c(=O)n(Cc3cccc(OC)c3)c(=O)n2C)n1C [Analog 80]	–	–
–	CN(Cc1cccc(F)c1)c1nc2c(c(=O)n(Cc3ccccc3)c(=O)n2C)n1C [Analog 48]	1300 nM	100%
–	COc1cccc(Cn2c(=O)c3c(nc(N(C)Cc4ccccc4)n3C)n(C)c2=O)c1 [Analog 32]	1400 nM	100%
